System: pCRMP2 (T514) in interphase GSCs
Assay: CRMP2 phosphorylation immunoblot
Assay type: cell-based, human
Conditions: interphase GSCs treated with microtubule agents
Protocol: FIGS. 8(A-B) illustrate that Eg5 impacts microtubule growth through the CRMP-tubulin deposition pathway; (A) 08-387 GSCs enriched in interphase were exposed to vehicle (DMSO) or ispinesib (200 nM) and harvested for whole cell lysates every two hours over a 6 hour time course. Resulting lysates were probed for CRMP2 and pCRMP2 (T514); (B) Human brain microvascular endothelial cells (HuBrMVECs) were treated with vehicle (DMSO) or ispinesib (200 nM) and harvested for whole cell lysates every three hours over a 6 hour time course. Resulting lysates were probed for CRMP2 and pCRMP2 (T514); For all immunoblots, βactin served as a loading control. Molecular weight (MW) of resulting bands is given in kilodaltons (kD).
Protein extracts were made using a 50 mM Tris pH 8.0, […] NaCl, 0.5% NP-40 lysis solution. Resulting lysates were ran on 10% SDS-PAGE gels and transferred to Immobilon-FL PVDF (Millipore Corp., Billerica, Mass.). The membranes were blocked with 5% (wt/vol) bovine serum albumin in PBS-Tween-20 (0.2% vol/vol) and probed with primary antibodies against Eg5 (mouse, 1:4000, BD Biosciences, San Jose, Calif.), Olig2 (rabbit, 1:1000, abcam, San Francisco, Calif.), GFAP (DAKO; 1:10,000, Carpinteria, Calif.), CRMP2 (mouse, 1:1000, abgent, San Diego, Calif.), pCRMP2(T514) (rabbit, 1:1000, Cell Signaling, Beverly, Mass.), or β-actin (mouse, 1:8000, Sigma-Aldrich, St. Louis, Mo.) as a loading control. Secondary antibodies (LI-COR) were incubated in TBST+0.02% SDS and visualized with the LI-COR Odyssey near infrared imaging system (Lincoln, NB).

In the case of `COC(=O)Nc1nc2ccc(C(=O)c3cccs3)cc2[nH]1` [nocodazole], the “CRMP2 phosphorylation at T514” value is reported as “induce CRMP2 phosphorylation at T514”.
For `CC(=O)O[C@H]1C(=O)[C@@]2(C)[C@H]([C@H](OC(=O)c3ccccc3)[C@]3(O)C[C@H](OC(=O)[C@H](O)[C@@H](NC(=O)c4ccccc4)c4ccccc4)C(C)=C1C3(C)C)[C@]1(OC(C)=O)CO[C@@H]1C[C@@H]2O` [paclitaxel], the “CRMP2 phosphorylation at T514” value was “induce CRMP2 phosphorylation at T514”.
